Experimental findings from patent publication US10758534B2 (Vertex Pharmaceuticals Incorporated, priority 2014, dated 2020) are described below.

This test concerns the target T1, F508del (Homo sapiens, UniProt P13569, DEL508-508).
T1 construct: expressed in transfected cells
Kind of test: Protocol 1: membrane potential optical assay (FLIPR III, voltage sensing dye), identification of potentiator compounds. The test is classed as cell-based. Conditions: Table 3, compounds of Table 1. The method, boiled down: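 Membrane potential in forskolin-activated, temperature-rescued F508del NIH 3T3 cells is followed with a voltage-sensing dye on FLIPR III. A chloride ion gradient created at the single addition step provides the driving force, after prior compound treatment.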

T1 sequence (P13569 with tags, fused parts or gaps DEL508-508): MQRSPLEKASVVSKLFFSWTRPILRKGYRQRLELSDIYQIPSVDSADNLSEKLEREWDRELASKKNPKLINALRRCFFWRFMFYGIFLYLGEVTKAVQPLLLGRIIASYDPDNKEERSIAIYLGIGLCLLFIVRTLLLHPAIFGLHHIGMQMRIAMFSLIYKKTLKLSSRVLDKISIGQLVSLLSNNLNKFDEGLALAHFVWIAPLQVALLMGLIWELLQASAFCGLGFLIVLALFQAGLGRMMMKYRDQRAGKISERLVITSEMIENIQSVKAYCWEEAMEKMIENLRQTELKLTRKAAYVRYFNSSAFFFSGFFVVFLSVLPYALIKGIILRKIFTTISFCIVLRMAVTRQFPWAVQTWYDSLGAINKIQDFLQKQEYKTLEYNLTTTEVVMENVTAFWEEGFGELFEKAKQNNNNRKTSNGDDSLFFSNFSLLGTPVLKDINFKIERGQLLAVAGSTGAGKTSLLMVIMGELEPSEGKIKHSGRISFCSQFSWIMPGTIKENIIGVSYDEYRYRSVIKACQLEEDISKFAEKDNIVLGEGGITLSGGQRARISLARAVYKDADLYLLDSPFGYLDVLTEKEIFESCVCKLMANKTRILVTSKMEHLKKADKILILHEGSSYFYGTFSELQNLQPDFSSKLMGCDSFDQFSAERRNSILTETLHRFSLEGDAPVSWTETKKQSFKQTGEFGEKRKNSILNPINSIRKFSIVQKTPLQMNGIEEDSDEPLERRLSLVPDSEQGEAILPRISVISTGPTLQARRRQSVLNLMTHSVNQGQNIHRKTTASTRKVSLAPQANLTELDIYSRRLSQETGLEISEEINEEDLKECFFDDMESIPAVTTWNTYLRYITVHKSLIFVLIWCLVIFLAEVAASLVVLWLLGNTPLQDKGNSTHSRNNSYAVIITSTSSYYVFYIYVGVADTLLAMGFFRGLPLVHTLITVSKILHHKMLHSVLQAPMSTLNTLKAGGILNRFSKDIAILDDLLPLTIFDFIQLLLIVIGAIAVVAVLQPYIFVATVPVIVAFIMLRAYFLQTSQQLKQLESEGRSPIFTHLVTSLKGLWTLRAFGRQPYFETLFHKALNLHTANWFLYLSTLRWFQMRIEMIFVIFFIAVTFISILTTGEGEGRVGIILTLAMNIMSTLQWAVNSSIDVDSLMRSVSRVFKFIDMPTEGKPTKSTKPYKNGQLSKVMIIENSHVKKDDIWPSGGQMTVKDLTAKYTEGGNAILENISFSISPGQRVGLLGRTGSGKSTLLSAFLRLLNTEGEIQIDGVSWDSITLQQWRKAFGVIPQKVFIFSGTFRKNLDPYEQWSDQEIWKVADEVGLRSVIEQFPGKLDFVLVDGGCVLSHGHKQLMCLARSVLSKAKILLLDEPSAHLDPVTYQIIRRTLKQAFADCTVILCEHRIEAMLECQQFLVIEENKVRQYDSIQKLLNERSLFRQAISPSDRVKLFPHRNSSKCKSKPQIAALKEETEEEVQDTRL

On to `Cc1cc(C)c(Oc2nc(C3=CCC(C(F)(F)F)CC3)ccc2C(=O)NS(=O)(=O)c2cccc(N)n2)c(C)c1` (centres unmarked) [Compound 1402, N-[(6-amino-2-pyridyl)sulfonyl]-6-[4-(trifluoromethyl)cyclohexen-1-yl]-2-(2,4,6-trimethylphenoxy)pyridine-3-carboxamide], for which the EC30 result is “+++ (“+++” means <3 uM)”.

`CC(C)Oc1ccc(-c2ccc(C(=O)NS(=O)(=O)c3ccn[nH]3)c(N3[C@H](C)CC[C@@H]3C)n2)cn1` [Compound 1074, 2-[(2S,5R)-2,5-dimethylpyrrolidin-1-yl]-6-(6-isopropoxy-3-pyridyl)-N-(1H-pyrazol-5-ylsulfonyl)pyridine-3-carboxamide]: the EC30 result was “++ (“++” means between 3 uM and 10 uM)”.

On to `CC(C)COc1cc(F)cc(-c2ccc(C(=O)NS(=O)(=O)c3cccc(N)n3)c(OC3COC3)n2)c1` [Compound 872, N-[(6-amino-2-pyridyl)sulfonyl]-6-(3-fluoro-5-isobutoxy-phenyl)-2-(oxetan-3-yloxy)pyridine-3-carboxamide], for which the EC30 entry is “++ (“++” means between 3 uM and 10 uM)”.

With `CC(C)COc1cc(F)cc(-c2ccc(C(=O)NS(=O)(=O)c3ccn[nH]3)c(N3CCC(OCC4CC4)CC3)n2)c1` [Compound 1088, 2-[4-(cyclopropylmethoxy)-1-piperidyl]-6-(3-fluoro-5-isobutoxy-phenyl)-N-(1H-pyrazol-5-ylsulfonyl)pyridine-3-carboxamide], the EC30 result is reported as “+++ (“+++” means <3 uM)”.

As to `Cc1cc(C)c(CN2Cc3ccccc3C2(C)C(=O)NS(=O)(=O)c2cccc(N)n2)c(C)c1` (centres unmarked) [Compound 895, N-[(6-amino-2-pyridyl)sulfonyl]-1-methyl-2-[(2,4,6-trimethylphenyl)methyl]isoindoline-1-carboxamide], the EC30 entry was “+++ (“+++” means <3 uM)”.

Turning to `Cc1cc(C#N)cc(C)c1Oc1nc(C(C)(C)C)ccc1C(=O)NS(=O)(=O)c1cccc(N)n1` [Compound 1089, N-[(6-amino-2-pyridyl)sulfonyl]-6-tert-butyl-2-(4-cyano-2,6-dimethyl-phenoxy)pyridine-3-carboxamide], the EC30 result is listed as “+++ (“+++” means <3 uM)”.

With `Cc1cc(C)c(Oc2nc(-c3ccc(C(C)C)cc3)ccc2C(=O)NS(=O)(=O)c2ccc[nH]c2=O)c(C)c1` [Compound 1002, 6-(4-isopropylphenyl)-N-[(2-oxo-1H-pyridin-3-yl)sulfonyl]-2-(2,4,6-trimethylphenoxy)pyridine-3-carboxamide], the EC30 entry is reported as “+++ (“+++” means <3 uM)”.

Turning to `CCOCCOc1ccn(-c2ccc(C(=O)NS(=O)(=O)c3cccnc3N)c(N3C[C@@H](C)CC3(C)C)n2)n1` [Compound 1742, N-[(2-amino-3-pyridyl)sulfonyl]-6-[3-(2-ethoxyethoxy)pyrazol-1-yl]-2-[(4S)-2,2,4-trimethylpyrrolidin-1-yl]pyridine-3-carboxamide], the EC30 result is “+++ (“+++” means <3 uM)”.

Take `COc1ccc(-c2cnc(N3CC(C)CC3(C)C)c(C(=O)NS(=O)(=O)c3cccc(N)n3)c2)cn1` (centres unmarked) [Compound 1886, N-[(6-amino-2-pyridyl)sulfonyl]-5-(6-methoxy-3-pyridyl)-2-(2,2,4-trimethylpyrrolidin-1-yl)pyridine-3-carboxamide]: the EC30 result is “++ (“++” means between 3 uM and 10 uM)”.

In the case of `Cc1cc(C)c(Oc2nc(-c3cccc(O)c3)ccc2C(=O)NS(=O)(=O)c2cccc(N)n2)c(C)c1` [Compound 908, N-[(6-amino-2-pyridyl)sulfonyl]-6-(3-hydroxyphenyl)-2-(2,4,6-trimethylphenoxy)pyridine-3-carboxamide], the EC30 entry is listed as “+ (“+” means greater than 10 uM)”.

With `C[C@@H]1CN(c2nc(C3CC3)ccc2C(=O)NS(=O)(=O)c2cccc(N)n2)C(C)(C)C1` [Compound 1627, N-[(6-amino-2-pyridyl)sulfonyl]-6-cyclopropyl-2-[(4S)-2,2,4-trimethylpyrrolidin-1-yl]pyridine-3-carboxamide], the EC30 entry was “+++ (“+++” means <3 uM)”.
